Here are results for one molecule from ChEMBL document CHEMBL1687868, “Bioactive compounds from the fern Lepisorus contortus” (J Nat Prod, 2011).

The assay can be described thus: Inhibition of TNF-alpha-induced NFkappaB activation in human HEK293 cells after 6 hrs by luciferase reporter gene assay. The conditions noted are these: HEK293, 6 h. The format is cell-based. A general note: A reporter such as luciferase makes a cellular process visible.

With `Cc1ccc(S(=O)(=O)N[C@@H](Cc2ccccc2)C(=O)CCl)cc1` [TPCK], inhibition was half-maximal at 3.76 µM (IC50).

The IC50 is the point on the concentration scale where inhibition reaches its midpoint. Read a low IC50 as greater potency.
